{"source": "patent US8394287B2", "about": "“Non-aqueous heat transfer fluid and use thereof” (priority 2001, dated 2013)", "origin": "cited, not measured here", "test_system": "human", "conditions": "Federal Register Vol. 63, No. 27, Feb. 10, 1998", "data": [{"compound": "OCCO", "note": "[EG, ethylene glycol]", "values": [{"measurement": "lethal dose for a human", "result": "approximately 1,570 mg/kg body mass"}]}]}
